Experimental data reported in BigSolDB 2.1.

CCCSc1ccc2nc(NC(=O)OC)[nH]c2c1
solubility (mole fraction)
Conditions | in acetone | in ethanol | in ethyl acetate | in isobutyl acetate | in isopropanol | in methanol | in n-butanol | in n-butyl acetate | in n-propanol | in n-propyl acetate
278.15 K | 0.00148 | 5.59e-05 | 0.00053 | 0.000491 | 9.89e-05 | 9.62e-05 | 0.00021 | 0.000553 | 0.00017 | 0.000468
283.15 K | 0.00173 | 7.25e-05 | 0.000596 | 0.000542 | 0.000128 | 0.000114 | 0.000254 | 0.000609 | 0.000192 | 0.00054
288.15 K | 0.00204 | 9.39e-05 | 0.000688 | 0.000594 | 0.000156 | 0.000133 | 0.000298 | 0.000691 | 0.00023 | 0.000598
293.15 K | 0.00253 | 0.00011 | 0.000805 | 0.000671 | 0.000187 | 0.000157 | 0.000343 | 0.000783 | 0.000276 | 0.000673
298.15 K | 0.00302 | 0.00014 | 0.000925 | 0.000749 | 0.000234 | 0.000174 | 0.000402 | 0.000873 | 0.000325 | 0.000777
303.15 K | 0.00349 | 0.000182 | 0.00103 | 0.000799 | 0.000272 | 0.000205 | 0.000473 | 0.000983 | 0.000371 | 0.000858
308.15 K | 0.00389 | 0.000234 | 0.00119 | 0.000873 | 0.000328 | 0.000257 | 0.000558 | 0.0011 | 0.000423 | 0.000962
313.15 K | 0.00442 | 0.000297 | 0.00133 | 0.000964 | 0.000394 | 0.000298 | 0.00063 | 0.0012 | 0.000488 | 0.00106
318.15 K | 0.00528 | 0.000364 | 0.0015 | 0.00109 | 0.000456 | 0.000363 | 0.000738 | 0.00132 | 0.000569 | 0.00117
323.15 K | 0.00589 | 0.000452 | 0.00167 | 0.00119 | 0.000553 | 0.000428 | 0.000829 | 0.00146 | 0.000624 | 0.0013
